# Experimental data as given in ChEMBL document CHEMBL4725481, “Novel Betulinic Acid-Nucleoside Hybrids with Potent Anti-HIV Activity” (ACS Med Chem Lett, 2020).
# How the values were obtained:
# [1] = Cytotoxicity against human MT4 cells treated for 3 days measured by Celltiter-glo luminescent assay; type: cell-based; settings: time 3 day
# [2] = Selectivity index, ratio of CC50 for human MT4 cells to EC50 for antiviral activity against HIV1 NL4-3; type: toxicity
# [3] = Antiviral activity against HIV 1 NL4-3 infected in human MT4 cells assessed as reduction in viral replication and measured on day 3 post infection by Nano-glo luciferase reporter assay; type: functional, cell-based
# [4] = Homo sapiens, NL4-3, MT4, 72 h, read-out: IC50
Structure (SMILES),"IC50 [3, 4] [nM]",IC50 ([3]; mt4),CC50 at 72 h [1] [nM],selectivity ratio [2]
C=C(C)[C@@H]1CC[C@]2(C(=O)OC)CC[C@]3(C)[C@H](CC[C@@H]4[C@@]5(C)C[C@@H](Cc6cn([C@]7(CO)O[C@@H](n8ccc(O)nc8=O)[C@@H](F)[C@@H]7O)nn6)[C@H](O)C(C)(C)[C@@H]5CC[C@]43C)[C@@H]12,–,Not Active,–,–
C=C(C)[C@@H]1CC[C@]2(C(=O)OC)CC[C@]3(C)[C@H](CC[C@@H]4[C@@]5(C)C[C@@H](Cc6cn([C@H]7C[C@H](n8cc(C)c(O)nc8=O)O[C@@H]7CO)nn6)C(=O)C(C)(C)[C@@H]5CC[C@]43C)[C@@H]12,–,Not Active,–,–
C=C(C)[C@@H]1CC[C@]2(C(=O)OC)CC[C@]3(C)[C@H](CC[C@@H]4[C@@]5(C)C[C@@H](Cc6cn([C@]7(CO)O[C@@H](n8ccc(O)nc8=O)[C@@H](F)[C@@H]7O)nn6)C(=O)C(C)(C)[C@@H]5CC[C@]43C)[C@@H]12,–,Not Active,–,–
C=C(C)[C@@H]1CC[C@]2(C(=O)O)CC[C@]3(C)[C@H](CC[C@@H]4[C@@]5(C)C[C@@H](Cc6cn([C@H]7C[C@H](n8cc(C)c(O)nc8=O)O[C@@H]7CO)nn6)[C@H](O)C(C)(C)[C@@H]5CC[C@]43C)[C@@H]12,> 1300,–,> 1300,–
C=C(C)[C@@H]1CC[C@]2(C(=O)OC)CC[C@]3(C)[C@H](CC[C@@H]4[C@@]5(C)C[C@@H](Cc6cn([C@H]7C[C@H](n8cc(C)c(O)nc8=O)O[C@@H]7CO)nn6)[C@H](O)C(C)(C)[C@@H]5CC[C@]43C)[C@@H]12,> 1300,–,> 1300,–
C=C(C)[C@@H]1CC[C@]2(C(=O)O)CC[C@]3(C)[C@H](CC[C@@H]4[C@@]5(C)CC[C@H](OC(=O)CC(C)(C)C(=O)O)C(C)(C)[C@@H]5CC[C@]43C)[C@@H]12 [BEVIRIMAT],> 21,–,> 6840,> 326

# Now from value to molecule, other results behind:
"IC50 [3, 4] [nM]",IC50 ([3]; mt4),Structure (SMILES),CC50 at 72 h [1] [nM],selectivity ratio [2]
219,–,[N-]=[N+]=N[C@]1(CO)O[C@@H](n2ccc(=O)[nH]c2=O)[C@@H](F)[C@@H]1O,> 3480,> 16
20,–,C=C(C)[C@@H]1CC[C@]2(C(=O)O)CC[C@]3(C)[C@H](CC[C@@H]4[C@@]5(C)C[C@@H](Cc6cn([C@]7(CO)O[C@@H](n8ccc(O)nc8=O)[C@@H](F)[C@@H]7O)nn6)[C@H](O)C(C)(C)[C@@H]5CC[C@]43C)[C@@H]12,23800,1190
97,–,C=C(C)[C@@H]1CC[C@]2(C(=O)OC)CC[C@]3(C)[C@H](CC[C@@H]4[C@@]5(C)C[C@@H](Cc6cn([C@]7(CO)O[C@@H](n8ccc(N)nc8=O)[C@@H](F)[C@@H]7O)nn6)C(=O)C(C)(C)[C@@H]5CC[C@]43C)[C@@H]12,> 25200,> 260
48,–,C=C(C)[C@@H]1CC[C@]2(C(=O)OC)CC[C@]3(C)[C@H](CC[C@@H]4[C@@]5(C)C[C@@H](Cc6cn([C@]7(CO)O[C@@H](n8ccc(N)nc8=O)[C@@H](F)[C@@H]7O)nn6)[C@H](O)C(C)(C)[C@@H]5CC[C@]43C)[C@@H]12,> 25200,> 525
7.8,–,C=C(C)[C@@H]1CC[C@]2(C(=O)O)CC[C@]3(C)[C@H](CC[C@@H]4[C@@]5(C)C[C@@H](Cc6cn([C@]7(CO)O[C@@H](n8ccc(N)nc8=O)[C@@H](F)[C@@H]7O)nn6)[C@H](O)C(C)(C)[C@@H]5CC[C@]43C)[C@@H]12,9600,1230
0.262,–,[N-]=[N+]=N[C@]1(CO)O[C@@H](n2ccc(N)nc2=O)[C@@H](F)[C@@H]1O [RO-0622],99.6,380
18,–,Cc1cn([C@H]2C[C@H](N=[N+]=[N-])[C@@H](CO)O2)c(=O)[nH]c1=O [ZIDOVUDINE],> 370,> 20.6
